Like-named read-outs stand apart in the source and are kept apart here.
Key:
[1] = system: Spodoptera eridania, eggs-southern armyworm (SAW-Eggs); experiment: Southern armyworm eggs (SAW-Eggs) treated diet test; assay type: in vivo; parameters: key: 0 = no effect; 1 = 10-25% kill; 2 = 26-35% kill; 3 = 36-45% kill; 4 = 46-55% kill; 5 = 56-65% kill; 6 = 66-75% kill; 7 = 76-85% kill; 8 = 86-99% kill; 9 = 100% kill; settings: mortality after 7 days
Outline: (§1)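 Compounds dissolved at 10,000 ppm in 35% acetone/water, diluted with water, applied to artificial diet in wells and dried. Southern corn rootworm or southern armyworm eggs placed on treated diet under vented covers; mortality counted after 7 days.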

[2] = system: Diabrotica undecimpunctata howardi, eggs-southern corn rootworm (SCR-Eggs); experiment: Southern corn rootworm eggs (SCR-Eggs) treated diet test; assay type: in vivo; parameters: key: 0 = no effect; 1 = 10-25% kill; 2 = 26-35% kill; 3 = 36-45% kill; 4 = 46-55% kill; 5 = 56-65% kill; 6 = 66-75% kill; 7 = 76-85% kill; 8 = 86-99% kill; 9 = 100% kill; settings: mortality after 7 days
Outline: as §1

[3] = system: C. elegans (Bristol strain); experiment: Evaluation of test compounds against C. elegans (motility, 96-well plate); assay type: in vivo; parameters: key: 9=complete kill in 4 hours; 8=complete kill in 24 hours; 7=markedly reduced motility in approximately 95% of worms in 24 hours; 0=normal motility, same as controls; settings: motility at 4 and 24 hours
Outline: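 Bristol-strain C. elegans in Na buffer added to wells containing dried compound (applied in 80% acetone) and incubated at 20 °C. Motility of adults and larvae scored subjectively but semi-quantitatively under a dissecting microscope at 4 and 24 h after immersion, plates tapped before reading.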

[4] = system: M. incognita (Root Knot Nematode) larvae; experiment: Evaluation of test compounds against M. incognita larvae in microtiter plate wells (movement score); assay type: in vivo; settings: larvae scored for movement after 20-24 hours; note: key: A score of '9' indicates inactive worms with a straight, sticklike morphology; A score of '8' indicates inactive worms with a limp, curled or curved morphology; A score of '7' indicates dead/paralyzed worms after 72 hours
Outline: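 Newly emerged M. incognita larvae in S Medium (buffered salt solution), 50-65 worms per well, exposed to test compounds in sealed microtiter wells. Movement scored after 20-24 h incubation; wells with obviously dead/paralyzed larvae scored positive. A score of "7" denotes dead/paralyzed worms after […].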

[5] = system: Root-knot nematode, Meloidogyne incognita J2 larvae; settings: potted tomato, scored 4 weeks following inoculation
Source text: Soil Nematicide Assay Targeting Root-knot Nematode, Meloidogyne Incognita on Potted Tomato
The test compound is solubilized in acetone and diluted with water to the required test concentration. Silty loam soil in a 3 inch pot with a 3-week-old tomato transplant is drenched with the test solution. Four thousand root-knot nematode Meloidogyne incognita J2 larvae are dispensed in a aqueous suspension onto the soil. The pots are kept in the greenhouse and 4 weeks following inoculation of the pots, plant roots are washed free of soil and scored for the degree of root galling using the root-knot galling index identified below.

[6] = system: Spodoptera eridania, 2nd instar larvae, southern armyworm (SAW); experiment: Southern armyworm (SAW) leaf dip test; assay type: in vivo; parameters: key: 0 = no effect; 1 = 10-25% kill; 2 = 26-35% kill; 3 = 36-45% kill; 4 = 46-55% kill; 5 = 56-65% kill; 6 = 66-75% kill; 7 = 76-85% kill; 8 = 86-99% kill; 9 = 100% kill
Outline: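 Compound is dissolved at 10,000 ppm in 35% acetone/water, then diluted with water. Lima bean leaves are dipped for 3 seconds, dried and placed with ten 2nd instar larvae on damp filter paper. Mortality, reduced feeding and molting interference are scored at 5 days.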

[7] = system: Aphis gossypii, cotton aphid (CA); experiment: Cotton aphid (CA) cotyledon dip test; assay type: in vivo; parameters: key: 0 = no effect; 1 = 10-25% kill; 2 = 26-35% kill; 3 = 36-45% kill; 4 = 46-55% kill; 5 = 56-65% kill; 6 = 66-75% kill; 7 = 76-85% kill; 8 = 86-99% kill; 9 = 100% kill; settings: mortality after 5 days
Outline: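 Cotyledon-stage cotton plants infested overnight via a heavily infested leaf, then dipped in test solution (compound in 35% acetone/water, diluted with water) and dried. Mortality counted after 5 days.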

[8] = system: Tetranychus urticae (OP-resistant strain), 2-spotted spider mite (TSM); experiment: 2-spotted spider mite (TSM) plant dip test; assay type: in vivo; parameters: key: 0 = no effect; 1 = 10-25% kill; 2 = 26-35% kill; 3 = 36-45% kill; 4 = 46-55% kill; 5 = 56-65% kill; 6 = 66-75% kill; 7 = 76-85% kill; 8 = 86-99% kill; 9 = 100% kill; settings: mortality after 2 days
Outline: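 OP-resistant mites (~100 per leaf) were transferred onto Sieva lima bean primary leaves about 2 h before treatment. Infested plants were dipped for 3 s in compound from a 10,000 ppm stock in 35% acetone/water, diluted with water. Mortality was counted after 2 days.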

[9] = system: Diabrotica virgifera virgifera Leconte, 2nd instar western corn rootworm (WCR); experiment: Western corn rootworm (WCR) soil test; assay type: in vivo; parameters: key: 0 = no effect; 1 = 10-25% kill; 2 = 26-35% kill; 3 = 36-45% kill; 4 = 46-55% kill; 5 = 56-65% kill; 6 = 66-75% kill; 7 = 76-85% kill; 8 = 86-99% kill; 9 = 100% kill
Outline: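 Compound in 35% acetone/water applied to talc at 1.25 mg active ingredient per jar (about 50 kg/ha), solvent evaporated, then mixed with millet seed and moist soil. Ten 2nd-instar larvae per jar; mortality counted after 5 days, missing larvae scored dead.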

SMILES | SAW Eggs (300 ppm) rating [1] | SCR Eggs (1000 ppm) rating [2] | Rating Against C. elegans (150 ppm) [3] | M. incognita (150 ppm) score [4] | Galling Index ([5]; Rate 10 ppm soil drench) | Galling Index ([5]; Rate 25 ppm soil drench) | Galling Index ([5]; Rate 50 ppm soil drench) | SAW (300 ppm) rating [6] | CA (300 ppm) rating [7] | TSM (300 ppm) rating [8] | WCR (50 ppm) rating [9]
O=C(O)CSC(C[N+](=O)[O-])c1ccccc1 (stereo not drawn) [Example 1, {[alpha-(nitromethyl)benzyl]thio}-acetic acid] | 0 | 0 | 9 | 9 | 1 (10) | 0 (0) | 0 (0) |  |  |  | 
C=CCSC(C[N+](=O)[O-])c1ccc(OC(F)(F)F)cc1 (stereo not shown) [Example 123] | 8 (8 = 86-99% kill) | 0 | 7 | 0 |  |  |  | 0 | 0 | 0 | 5 (5 = 56-65% kill)
COc1ccc(C(C[N+](=O)[O-])SCc2ccccc2)cc1 (stereo not shown) [Example 52] | 0 | 0 | 9 | 9 |  |  |  | 0 | 0 | 0 | 4 (4 = 46-55% kill)
O=C(CSC(C[N+](=O)[O-])c1ccc2c(c1)OCO2)OCc1ccccc1 (racemic) [Example 106] | 0 | 0 | 8 | 0 |  |  |  | 0 | 0 | 0 | 0
